# Results: patent US20110144213A1, “ANHYDROUS DEPIGMENTING COMPOSITIONS COMPRISING A SOLUBILIZED PHENOLIC COMPOUND” (priority 2008, published 2011)
# Where two headings read alike, the source gives them in different places.
# Tests used:
# [1] = Stability of the active agents in solvent oils and lipophilic surfactants (HPLC assay against reference substance, colour); type: physicochemical; settings: for Colour: 40° C.
# From the text: Stability of Hydroquinone in Solvent Oils and Lipophilic Surfactants
# Assay technique by HPLC against reference substance.
# The initial time (T0) is considered as 100%
# The above table makes it possible to evaluate the stability of hydroquinone in the various solubilizing agents identified previously.
# Stability of Rucinol in Solvent Oils and Lipophlic Surfactants
# The initial time (T0) is considered as 100%.
# The table below makes it possible to evaluate the stability of rucinol in the solubilizing agents identified previously.
# [2] = cited from earlier work
# [3] = Max. solubility of the active agents in solvent oils, lipophilic surfactants and alcoholic or glycolic solvents (HPLC); type: physicochemical; settings: rucinol in all the solvents tested
# From the text: a) Solubilities and Stabilities of Hydroquinone in Solvent Oils and Lipophilic Surfactants Hydroquinone Solubilities
# The above table makes it possible to identify which solvents are the most solubilizing for the active agent, for optimum selection of the ingredients of the composition. However, the choice of solvent will also be made on the basis of the results of the stability of hydroquinone in these solvents. […]
# b) Solubilities and Stabilities of Rucinol in Solvent Oils and Lipophilic Surfactants […]
# However, the optimum choice of solvent will also be made on the basis of the results of the stability of rucinol in these solvents.
"Colour ([1]; hydroquinone in Ethanol/water (20/80), 1 MONTH)","Colour ([1]; hydroquinone in Glycerol, 1 MONTH)","Colour ([1]; hydroquinone in Propylene glycol, 3 MONTHS)","stability of hydroquinone (in words) ([1]; in Cremophor EL, browning that becomes pronounced over time and with temperature)","stability of hydroquinone (in words) ([1]; in Crodamol DA, Arlamol E and Labrasol, macroscopic observation of the colour)","stability of hydroquinone (in words) ([1]; in solvents of the prior art such as glycols, RT and 40° C., absence of antioxidants)",solubility (in words) [3],Compound,incidence of the irritation ([2]; 10% hydroquinone concentrations),incidence of the irritation ([2]; concentration of 2%),incidence of the irritation ([2]; preparations with a 5% dose)
Dark,Dark,Dark,macroscopic instability,good chemical and physical stability,a colouration is observed,,"Oc1ccc(O)cc1 [Hydroquinone, hydroquinone]",relatively high,virtually nonexistent,reduces greatly
,,,,,,very good solubility,"CCCCc1ccc(O)cc1O [Rucinol, 4-butylresorcinol]",,,
